Measured values published in US20220168430A1, “THERAPEUTIC METHODS FOR TREATING HEPATITIS B” (priority 2019, published 2022).
Like-named read-outs stand apart in the source and are kept apart here.

Key:
[1] = system: HBV DNA; experiment: HBV DNA by branched DNA assay in HepG2.2.15 cells, two-compound combinations (Examples 13-14); assay type: cell-based, HBV; HepG2.2.15 (human hepatoblastoma); settings: for MacSynergy Volume Calculations, 99.99% confidence interval (Bonferroni Adj. 96%) / Average percent inhibition versus negative control: Cmpd 2 μM: 0.01, 0.0032, 0.001, 0.0003, 0.0001, 0; for Average percent inhibition versus negative control: n = 4; for Additive percent inhibition versus negative control: Compound (2) μM: 0.01, 0.0032, 0.001, 0.0003, 0.0001, 0
Experimental: In vitro combination studies were conducted using the method of Prichard and Shipman (Prichard M N, and Shipman C Jr., Antiviral Research, 1990, 14(4-5), 181-205; and Prichard M N, et. al., MacSynergy II). The HepG2.2.15 cell culture system is a cell line derived from human hepatoblastoma HepG2 cells, which have been stably transfected with the adw2-subtype HBV genome as previously explained in Sells et al. (Proc. Natl. Acad. Sci. U. S. A, 1987. Vol 84:1005-1009). HepG2.2.15 cells secrete Dane-like viral particles, produce HBV DNA, and produce the viral proteins, HBeAg and HBsAg.
Although inhibition of HBV DNA, RNA and proteins can be determined in the presence of these inhibitors, we used the branched DNA assay due to its ability to quantitatively measure the level HBV DNA.
Detection of HBV DNA. The branched DNA assay (bDNA) was used to determine the effect of compound combinations on HBV DNA. HepG2.2.15 (10,000 cells/well) were cultured in DMEM medium plus supplements as described above. The next day, the cells were replenished with fresh medium followed by the addition of Inhibitor A and B, both were dissolved in 100% DMSO. The microtiter cell plates were incubated for a total duration of 6 days at 37° C. without replenishing media or compound. The serial dilutions spanned concentration ranges respective to the EC50 value of each compound. In addition to combination testing of the compounds, both inhibitors A and B were also tested singly.
The level of bDNA present in the inhibitor-treated supernatant wells was measured using a Quantigene 2.0 bDNA assay kit (Affymetrix, Santa Clara, Calif.) with HBV specific custom probe set (genotype D ayw; DF-10739) and manufacturer's instructions after performing a proteinase K digestion in lysis. The plates were read using a Victor luminescence plate reader (PerkinElmer Model 1420 Multilabel counter) and the RLU data generated from each well was calculated as inhibition of the untreated control wells. The data was analyzed using the interpretive guidelines established by Prichard and Shipman combination model using the MacSynergy II program (Prichard M N, Shipman C Jr. Antiviral Research, 1990. Vol 14(4-5):181-205; Prichard M N, Aseltine KR, and Shipman, C. MacSynergy II. University of Michigan 1992) to determine whether the combinations were synergistic, additive or antagonistic using the interpretive guidelines established by Prichard and Shipman as follows: synergy volumes <25 μM2% (log volume <2) at 95% CI=probably insignificant; 25-50 (log volume >2 and <5)=minor but significant 50-100 (log volume >5 and <9)=moderate, may be important in vivo; Over 100 (log volume >9)=strong synergy, probably important in vivo; volumes approaching 1000 (log volume >90)=unusually high, check data. The RLU data from the single compound treated cells were analyzed using XL-Fit module in Microsoft Excel to determine EC50 values using a 4-parameter curve fitting algorithm.

[2] = system: HepG2.2.15 cells; assay type: cell-based, human; settings: Cmpd 2 μM: 0.01, 0.0032, 0.001, 0.0003, 0.0001, 0
Excerpt: The combination results were completed in duplicate with each assay consisting of 4 technical repeats.
The combination results were completed in duplicate with each assay consisting of 4 technical repeats. In this assay system, the combination results in additive inhibition of HBV DNA.

SMILES: CC(C)OC(=O)[C@H](C)N[P@](=O)(CO[C@H](C)Cn1cnc2c(N)ncnc21)Oc1ccccc1 [TAF, tenofovir alafenamide]
- EC50 ([1]; Hepatitis B virus, HepG2.2.15, read-out: Inhibitor A EC50): 0.054 µM
- MacSynergy Volume Calculations, 99.99% confidence interval (Bonferroni Adj. 96%) ([1]; TAF 0.0002 μM): 0
- Average percent inhibition versus negative control ([1]; TAF 0.0002 μM): 8.88%
- Additive percent inhibition versus negative control ([1]; TAF 0.0002 μM): 8.88%
- MacSynergy Volume Calculations, 99.99% confidence interval (Bonferroni Adj. 96%) ([1]; TAF 0.0006 μM): 0
- Average percent inhibition versus negative control ([1]; TAF 0.0006 μM): 12.91%
- Additive percent inhibition versus negative control ([1]; TAF 0.0006 μM): 12.91%
- MacSynergy Volume Calculations, 99.99% confidence interval (Bonferroni Adj. 96%) ([1]; TAF 0.0020 μM): 0
- Average percent inhibition versus negative control ([1]; TAF 0.0020 μM): 14.28%
- Additive percent inhibition versus negative control ([1]; TAF 0.0020 μM): 14.28%
- MacSynergy Volume Calculations, 99.99% confidence interval (Bonferroni Adj. 96%) ([1]; TAF 0.0064 μM): 0
- Average percent inhibition versus negative control ([1]; TAF 0.0064 μM): 19.87%
- Additive percent inhibition versus negative control ([1]; TAF 0.0064 μM): 19.87%
- MacSynergy Volume Calculations, 99.99% confidence interval (Bonferroni Adj. 96%) ([1]; TAF 0.0201 μM): 0
- Average percent inhibition versus negative control ([1]; TAF 0.0201 μM): 25.36%
- Additive percent inhibition versus negative control ([1]; TAF 0.0201 μM): 25.36%
- MacSynergy Volume Calculations, 99.99% confidence interval (Bonferroni Adj. 96%) ([1]; TAF 0.0634 μM): 0
- Average percent inhibition versus negative control ([1]; TAF 0.0634 μM): 42.96%
- Additive percent inhibition versus negative control ([1]; TAF 0.0634 μM): 42.96%
- MacSynergy Volume Calculations, 99.99% confidence interval (Bonferroni Adj. 96%) ([1]; TAF 0.2002 μM): 0
- Average percent inhibition versus negative control ([1]; TAF 0.2002 μM): 62.7%
- Additive percent inhibition versus negative control ([1]; TAF 0.2002 μM): 62.7%
- MacSynergy Volume Calculations, 99.99% confidence interval (Bonferroni Adj. 96%) ([1]; TAF 0.6329 μM): 0
- Average percent inhibition versus negative control ([1]; TAF 0.6329 μM): 76.45%
- Additive percent inhibition versus negative control ([1]; TAF 0.6329 μM): 76.45%
- MacSynergy Volume Calculations, 99.99% confidence interval (Bonferroni Adj. 96%) ([1]; TAF 2.0 μM): 0
- Average percent inhibition versus negative control ([1]; TAF 2.0 μM): 87.21%
- Additive percent inhibition versus negative control ([1]; TAF 2.0 μM): 87.21%
- Average percent of cell viability vs control ([2]; TAF 0.0002 μM): 103.95%
- Average percent of cell viability vs control ([2]; TAF 0.0006 μM): 104.32%
- Average percent of cell viability vs control ([2]; TAF 0.0020 μM): 103.73%
- Average percent of cell viability vs control ([2]; TAF 0.0064 μM): 101.18%
- Average percent of cell viability vs control ([2]; TAF 0.0201 μM): 101.33%
- Average percent of cell viability vs control ([2]; TAF 0.0634 μM): 103.56%
- Average percent of cell viability vs control ([2]; TAF 0.2002 μM): 96.48%
- Average percent of cell viability vs control ([2]; TAF 0.6329 μM): 80.67%
- Average percent of cell viability vs control ([2]; TAF 2.0 μM): 88.67%
